Test results published in patent US8987247B2, “Monoacylglycerol lipase inhibitors for the treatment of metabolic diseases and related disorders” (Janssen Pharmaceutica NV, priority 2011, dated 2015).
Marks after values point to notes of the source that are not given here.

How the values were obtained:
rats, strain CD(SD)IGS = assay: 5-Day Repeat Dose with Weight Monitoring in Rats; assay type: in vivo, rat; details: for Mean body weight Change: Day −1 to Day 4
Protocol: Male and Female rats, strain CD(SD)IGS (Charles River Laboratories International, Inc., MA) of 8 weeks of age were individually housed and maintained on a 12-hr light/dark cycle. Rats were fed ad libitum with a standard diet (Rodent Diet 5001, PMI Nutrition International, Indiana). […] Rats were weighed predose and on days 1 and 4. Clinical observations were recorded prior to dosing, at 2 hours post-dose each day. Rats were fasted overnight on Day 4 and blood was collected on Day 5 from the retro-orbital sinus following anesthesia with a 70/30% carbon dioxide/oxygen mixture. Blood was collected into tubes containing tripotassium EDTA for hematology panel and no additive for serum chemistry determinations. Rats were euthanized by CO2 inhalation and thoracic and abdominal cavities were examined and weights of liver determined.

Sprague-Dawley rats = assay: Effect on Food Intake after Food Deprivation in Rats; assay type: in vivo, rat; details: 30 mg/kg p.o., rats fasted 18 h, N=6/group
Protocol: In rats, food deprivation or restriction is a standard method for inducing increased food intake. In other words, depriving the rats of food and then subsequently presenting them with food results, predictably in over-eating (also referred to as rebound hyperphagia). To study the effect of compounds of formula (I) on feeding behavior, rats were treated after food deprivation.
Adult, male Sprague-Dawley rats were single-housed on a 12 h light/dark cycle and received food and water ad libitum, except where otherwise indicated. Rats were allowed to acclimate to the housing room for at least 1 week prior to testing. One day prior to treatment, each rat was transferred to a new cage that was free of bedding and contained a wire grid floor, and all food was removed. Rats were fasted for 18 h before treatment. Rats were divided into two groups (N=6/group) and received either a compound of formula (I) at 30 mg/kg, p.o. or vehicle. At dosing, all rats received a pre-measured amount of standard rodent chow. After 30 min, the food was re-weighed to determine the amount consumed.

beagle dogs = assay: 5-Day Repeat Dose with Weight Monitoring in Dogs; assay type: in vivo, dog; design: key to Clinical Observations: Stained urogenital area (no. of dogs) / Body Temperature Change / Body Weight Change: —: No noteworthy findings; details: for Body Weight Change: 5 days, Day-1 to Day 5; for Body Temperature Change: 4 hours postdose on Day 0
Protocol: Male and female beagle dogs, 15 months of age, were individually housed and maintained on a 12-hourlight/dark cycle. Dogs were given 300 g/day of Advanced Protocol™ Non-Certified High Density Canine Diet 5L18 (pMfID Nutrition International). Food was provided 0.5 to 2 hours post-dose, except on days of toxicokinetic blood sampling when food was provided after the 4 hour time point. Canned food was supplemented beginning on day 3. A compound of formula (I) was administered orally via gavage using a stomach tube once daily (initiating on Day 0) to male and female dogs (1 each per dose) for 5 consecutive days at 0, 5, 15 and 45 mg/kg/day. Dogs were weighed on Day-1 and Day 5 prior to necropsy. Food consumption was determined 3 days predose and then daily. Body temperature was measured at 0 (predose), 4 and 24 hours on Days 0 and 4. Clinical observations were recorded predose and 2 hours postdose daily. Dogs were fasted overnight prior to blood collection. Blood was collected from all dogs predose on Day-8 and prior to dosing on Day 4 from the jugular vein. Blood was collected into tubes containing tripotassium EDTA for hematology and no additive for serum chemistry determinations. At necropsy, the thoracic and abdominal cavities were examined.

SMILES: O=C(c1ccc2c(ccn2-c2ccc(F)cc2)c1)N1CC(N2CCN(C(=O)c3nccs3)CC2)C1 [Cpd 1, 1-(4-Fluorophenyl)-5-({3-[4-(1,3-thiazol-2-ylcarbonyl)piperazin-1-yl]azetidin-1-yl}carbonyl)-1H-indole]
- Mean body weight (rats, strain CD(SD)IGS; female rats, 15 mg/kg/day oral, Day 4): 226.98 +/− 10.29
- Mean body weight (rats, strain CD(SD)IGS; female rats, 15 mg/kg/day oral, Day −1 (predose)): 203.86 +/− 6.13
- Mean body weight (rats, strain CD(SD)IGS; female rats, 50 mg/kg/day oral, Day −1 (predose)): 199.16 +/− 5.66
- Mean body weight Change (rats, strain CD(SD)IGS; female rats, 50 mg/kg/day oral): 8.54 +/− 2.32
- Mean body weight (rats, strain CD(SD)IGS; male rats, 15 mg/kg/day oral, Day 4): 301.94 +/− 7.52
- Mean body weight (rats, strain CD(SD)IGS; male rats, 15 mg/kg/day oral, Day −1 (predose)): 273.34 +/− 4.80
- Mean body weight Change (rats, strain CD(SD)IGS; male rats, 15 mg/kg/day oral): 28.60 +/− 2.90
- Mean body weight (rats, strain CD(SD)IGS; male rats, 50 mg/kg/day oral, Day 4): 278.78 +/− 6.95
- Mean body weight (rats, strain CD(SD)IGS; male rats, 50 mg/kg/day oral, Day −1 (predose)): 272.66 +/− 6.92
- Mean body weight Change (rats, strain CD(SD)IGS; male rats, 50 mg/kg/day oral): 6.10 +/− 3.56*
- Food Intake (g of food over 30 min) (Sprague-Dawley rats): 1.60 ± 1.02 g
- Clinical Observations: Emesis (no. of dogs) (beagle dogs; dog F:1, 5 mg/kg daily oral): 1
- Clinical Observations: Feces, absent (no. of dogs) (beagle dogs; dog F:1, 5 mg/kg daily oral): 1
- Clinical Observations: Feces, decrease (no. of dogs) (beagle dogs; dog F:1, 5 mg/kg daily oral): 1
- Clinical Observations: Stained urogenital area (no. of dogs) (beagle dogs; dog F:1, 5 mg/kg daily oral): —
- Food Consumption (beagle dogs; dog F:1, 5 mg/kg daily oral): ↓
- Body Weight Change (beagle dogs; dog F:1, 5 mg/kg daily oral): −0.90
- Body Temperature Change (beagle dogs; dog F:1, 5 mg/kg daily oral): −3.2
- Clinical Observations: Emesis (no. of dogs) (beagle dogs; dog F:1, 15 mg/kg daily oral): 1
- Clinical Observations: Feces, absent (no. of dogs) (beagle dogs; dog F:1, 15 mg/kg daily oral): 1
- Clinical Observations: Feces, decrease (no. of dogs) (beagle dogs; dog F:1, 15 mg/kg daily oral): 1
- Clinical Observations: Stained urogenital area (no. of dogs) (beagle dogs; dog F:1, 15 mg/kg daily oral): 1
- Food Consumption (beagle dogs; dog F:1, 15 mg/kg daily oral): ↓
- Body Weight Change (beagle dogs; dog F:1, 15 mg/kg daily oral): —
- Body Temperature Change (beagle dogs; dog F:1, 15 mg/kg daily oral): −1.6
- Clinical Observations: Emesis (no. of dogs) (beagle dogs; dog F:1, 45 mg/kg daily oral): 1
- Clinical Observations: Feces, absent (no. of dogs) (beagle dogs; dog F:1, 45 mg/kg daily oral): 1
- Clinical Observations: Feces, decrease (no. of dogs) (beagle dogs; dog F:1, 45 mg/kg daily oral): 1
- Clinical Observations: Stained urogenital area (no. of dogs) (beagle dogs; dog F:1, 45 mg/kg daily oral): 1
- Food Consumption (beagle dogs; dog F:1, 45 mg/kg daily oral): ↓
- Body Weight Change (beagle dogs; dog F:1, 45 mg/kg daily oral): −1.28
- Body Temperature Change (beagle dogs; dog F:1, 45 mg/kg daily oral): —
- Clinical Observations: Emesis (no. of dogs) (beagle dogs; dog M:1, 5 mg/kg daily oral): 1
- Clinical Observations: Feces, absent (no. of dogs) (beagle dogs; dog M:1, 5 mg/kg daily oral): 1
- Clinical Observations: Feces, decrease (no. of dogs) (beagle dogs; dog M:1, 5 mg/kg daily oral): 1
- Clinical Observations: Stained urogenital area (no. of dogs) (beagle dogs; dog M:1, 5 mg/kg daily oral): —
- Food Consumption (beagle dogs; dog M:1, 5 mg/kg daily oral): ↓
- Body Weight Change (beagle dogs; dog M:1, 5 mg/kg daily oral): −1.10
- Body Temperature Change (beagle dogs; dog M:1, 5 mg/kg daily oral): −3.4
- Clinical Observations: Emesis (no. of dogs) (beagle dogs; dog M:1, 15 mg/kg daily oral): 1
- Clinical Observations: Feces, absent (no. of dogs) (beagle dogs; dog M:1, 15 mg/kg daily oral): 1
- Clinical Observations: Feces, decrease (no. of dogs) (beagle dogs; dog M:1, 15 mg/kg daily oral): 1
- Clinical Observations: Stained urogenital area (no. of dogs) (beagle dogs; dog M:1, 15 mg/kg daily oral): 1
- Food Consumption (beagle dogs; dog M:1, 15 mg/kg daily oral): ↓
- Body Weight Change (beagle dogs; dog M:1, 15 mg/kg daily oral): −0.74
- Body Temperature Change (beagle dogs; dog M:1, 15 mg/kg daily oral): —
- Clinical Observations: Emesis (no. of dogs) (beagle dogs; dog M:1, 45 mg/kg daily oral): 1
- Clinical Observations: Feces, absent (no. of dogs) (beagle dogs; dog M:1, 45 mg/kg daily oral): 1
- Clinical Observations: Feces, decrease (no. of dogs) (beagle dogs; dog M:1, 45 mg/kg daily oral): 1
- Clinical Observations: Stained urogenital area (no. of dogs) (beagle dogs; dog M:1, 45 mg/kg daily oral): 1
- Food Consumption (beagle dogs; dog M:1, 45 mg/kg daily oral): ↓
- Body Weight Change (beagle dogs; dog M:1, 45 mg/kg daily oral): −0.78
- Body Temperature Change (beagle dogs; dog M:1, 45 mg/kg daily oral): −1.9
